Experimental data published in PMC11840788, “3,3′-Diindolylmethane (DIM): A Molecular Scaffold for Inhibition of WWP1 and WWP2, Members of the NEDD4 Family HECT E3 Ligases” (ACS Omega, 2025).

Biological target: T1, WWP1-2L34H (Homo sapiens, UniProt Q9H0M0)
T1 construct: WWP1-WW2-2,3-linker-WW3-WW4-HECT (WWP1-2L34H); His-Trx (3C site) (N, cleaved yes); made in house; host or cells: E. coli BL21-CodonPlus RP (plasmid pET32a-WWP1-2L34H, gift of Dr Wenyu Wen)
Assay: differential scanning fluorimetry (DSF), WWP1
Format: binding
Settings: 100 μM compound, 0.1% DMSO, Boltzmann fit
Text: Differential scanning fluorimetry (DSF) was utilized to initially assess interactions of I3C with both WWP1 and WWP2. Although binding of I3C to WWP1 has been reported previously,[25] we wanted to determine whether such interactions are observed with a protein construct containing the WW2 domain, given its proximity to the proposed exo binding site. In this regard, the WWP1-WW2-2,3-linker-WW3-WW4-HECT (WWP1-2L34H) and WWP2-WW2-2,3-linker-HECT (WWP2-LH) constructs were chosen (SI Figure S2) and DSF assays performed using 100 μM I3C (0.1% DMSO) with midpoint melting temperature (Tm) determined by fitting a Boltzmann regression to the melting curve (Figure 2A). Three independent repeat experiments were performed. […] This is in marked contrast to that seen when using the simple WWP1 HECT domain as a target.[30]
A 96 well-plate (MicroAmp Optical) was loaded with 18 μL of 3.8 μM WWP1-2L34H and 2.5 μM WWP2-LH, in their respective buffers (SI Table S5) containing 5 × SYPRO orange dye. […] The plates were briefly centrifuged before the assay was run using an ABI 7500 RT-PCR following the melt curve using ROX (575 nm) as the “preset” fluorescence dye. […] The midpoint melting temperature (Tm) was calculated using a Boltzmann fit to the fluorescence curve using Protein Thermal Shift Software v1.4 (ThermoFisher). […]

T1 sequence (Q9H0M0 379-922 limits assumed): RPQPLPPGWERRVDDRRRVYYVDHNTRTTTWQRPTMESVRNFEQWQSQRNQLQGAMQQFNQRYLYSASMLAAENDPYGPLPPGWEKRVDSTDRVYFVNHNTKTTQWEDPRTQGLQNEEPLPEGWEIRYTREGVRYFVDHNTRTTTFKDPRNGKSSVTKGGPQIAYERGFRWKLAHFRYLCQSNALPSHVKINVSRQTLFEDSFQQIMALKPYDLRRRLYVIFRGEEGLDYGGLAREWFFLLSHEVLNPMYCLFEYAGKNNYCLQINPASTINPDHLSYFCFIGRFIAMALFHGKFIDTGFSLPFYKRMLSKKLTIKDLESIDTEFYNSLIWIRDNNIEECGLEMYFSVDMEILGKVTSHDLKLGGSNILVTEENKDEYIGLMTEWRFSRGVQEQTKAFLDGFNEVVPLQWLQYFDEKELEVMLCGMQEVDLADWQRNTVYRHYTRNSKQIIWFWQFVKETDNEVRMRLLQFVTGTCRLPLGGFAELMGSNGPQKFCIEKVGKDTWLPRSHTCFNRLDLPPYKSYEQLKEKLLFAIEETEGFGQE

Compound `OCc1c[nH]c2ccccc12` [Compound I3C, Indole-3-carbinol, reference compound] has a ΔTm at 100 µM of 0.47 ± 0.15 °C.
